Assay results taken from patent US9695155B2, “Herbicidal substituted pyrimidinyloxy benzene compounds” (E. I. DU PONT DE NEMOURS AND COMPANY, priority 2013, dated 2017).

Experiments:
Italian ryegrass = test: Test E preemergence; assay type: in vivo, Lolium multiflorum; settings: for Ryegrass, Italian plant response rating: scale 0 to 100 (0 no effect, 100 complete control); for Plant response rating, Ryegrass, Italian: scale 0 to 100, 0 no effect, 100 complete control
Method in brief: (§1)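 Compound in a non-phytotoxic solvent mixture with surfactant was applied preemergence to seeds in silt loam soil, or postemergence to plants 2 to 18 cm tall grown in peat-based potting medium. Plants were kept in a greenhouse for 14 to 21 days, then rated visually against untreated controls on a 0 (no effect) to 100 (complete control) scale.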

corn = test: Test E postemergence; assay type: in vivo, Zea mays; settings: Postemergence, scale 0 to 100
Method in brief: as §1

morningglory = test: Test E preemergence; assay type: in vivo, Ipomoea coccinea; settings: for Morningglory plant response rating: scale 0 to 100 (0 no effect, 100 complete control); for Plant response rating, Morningglory: scale 0 to 100, 0 no effect, 100 complete control
Method in brief: as §1

palmer pigweed [1] = test: Test E postemergence; assay type: in vivo, Amaranthus palmeri; settings: Postemergence, scale 0 to 100
Method in brief: as §1

Brazilian crabgrass [2] = test: Test E postemergence; assay type: in vivo, Digitaria horizontalis; settings: Postemergence, scale 0 to 100
Method in brief: as §1

waterhemp [3] = test: Test E preemergence; assay type: in vivo, Amaranthus rudis; settings: for Waterhemp plant response rating: scale 0 to 100 (0 no effect, 100 complete control); for Plant response rating, Waterhemp: scale 0 to 100, 0 no effect, 100 complete control
Method in brief: as §1

waterhemp [4] = test: Test E postemergence; assay type: in vivo, Amaranthus rudis; settings: Postemergence, scale 0 to 100
Method in brief: as §1

lambsquarters = test: Test E preemergence; assay type: in vivo, Chenopodium album; settings: for Lambsquarters plant response rating: scale 0 to 100 (0 no effect, 100 complete control); for Plant response rating, Lambsquarters: scale 0 to 100, 0 no effect, 100 complete control
Method in brief: as §1

palmer pigweed [5] = test: Test E preemergence; assay type: in vivo, Amaranthus palmeri; settings: for Pigweed, Palmer plant response rating: scale 0 to 100 (0 no effect, 100 complete control); for Plant response rating, Pigweed, Palmer: scale 0 to 100, 0 no effect, 100 complete control
Method in brief: as §1

Brazilian crabgrass [6] = test: Test E preemergence; assay type: in vivo, Digitaria horizontalis; settings: for Crabgrass, Brazil plant response rating: scale 0 to 100 (0 no effect, 100 complete control); for Plant response rating, Crabgrass, Brazil: scale 0 to 100, 0 no effect, 100 complete control
Method in brief: as §1

sandbur = test: Test E postemergence; assay type: in vivo, Cenchrus echinatus; settings: Postemergence, scale 0 to 100
Method in brief: as §1

kochia = test: Test E preemergence; assay type: in vivo, Kochia scoparia; settings: for Kochia plant response rating: scale 0 to 100 (0 no effect, 100 complete control); for Plant response rating, Kochia: scale 0 to 100, 0 no effect, 100 complete control
Method in brief: as §1

fall panicum = test: Test E postemergence; assay type: in vivo, Panicum dichotomiflorum; settings: Postemergence, scale 0 to 100
Method in brief: as §1

hairy beggarticks = test: Test E postemergence; assay type: in vivo, Bidens pilosa; settings: Postemergence, scale 0 to 100
Method in brief: as §1

field bindweed = test: Test E postemergence; assay type: in vivo, Convolvulus arvensis; settings: Postemergence, scale 0 to 100
Method in brief: as §1

wild poinsettia = test: Test E postemergence; assay type: in vivo, Euphorbia heterophylla; settings: Postemergence, scale 0 to 100
Method in brief: as §1

large (Lg) crabgrass = test: Test E preemergence; assay type: in vivo, Digitaria sanguinalis; settings: for Crabgrass, Large plant response rating: scale 0 to 100 (0 no effect, 100 complete control); for Plant response rating, Crabgrass, Large: scale 0 to 100, 0 no effect, 100 complete control
Method in brief: as §1

N#Cc1cccc(Oc2ncc(Cl)cn2)c1-n1cc(Cl)cn1 [Compound 72]
Ryegrass, Italian plant response rating (Italian ryegrass; 16 g ai/ha): 0
Ryegrass, Italian plant response rating (Italian ryegrass; 31 g ai/ha): 15
Ryegrass, Italian plant response rating (Italian ryegrass; 62 g ai/ha): 20
Plant response rating, Ryegrass, Italian (Italian ryegrass; 125 g ai/ha): 35
Plant response rating, Ryegrass, Italian (Italian ryegrass; 250 g ai/ha): 75
Plant response rating, Corn (corn; 62 g ai/ha): 15
Plant response rating, Corn (corn; 125 g ai/ha): 10
Morningglory plant response rating (morningglory; 16 g ai/ha): 0
Morningglory plant response rating (morningglory; 31 g ai/ha): 0
Morningglory plant response rating (morningglory; 62 g ai/ha): 15
Plant response rating, Morningglory (morningglory; 125 g ai/ha): 15
Plant response rating, Morningglory (morningglory; 250 g ai/ha): 35
Plant response rating, Pigweed, Palmer (palmer pigweed [1]; 62 g ai/ha): 75
Plant response rating, Pigweed, Palmer (palmer pigweed [1]; 125 g ai/ha): 90
Plant response rating, Crabgrass, Brazil (Brazilian crabgrass [2]; 62 g ai/ha): 10
Plant response rating, Crabgrass, Brazil (Brazilian crabgrass [2]; 125 g ai/ha): 20
Waterhemp plant response rating (waterhemp [3]; 16 g ai/ha): 95
Waterhemp plant response rating (waterhemp [3]; 31 g ai/ha): 98
Waterhemp plant response rating (waterhemp [3]; 62 g ai/ha): 100
Plant response rating, Waterhemp (waterhemp [3]; 125 g ai/ha): 100
Plant response rating, Waterhemp (waterhemp [3]; 250 g ai/ha): 100
Plant response rating, Waterhemp (waterhemp [4]; 62 g ai/ha): 80
Plant response rating, Waterhemp (waterhemp [4]; 125 g ai/ha): 98
Lambsquarters plant response rating (lambsquarters; 16 g ai/ha): 0
Lambsquarters plant response rating (lambsquarters; 31 g ai/ha): 90
Lambsquarters plant response rating (lambsquarters; 62 g ai/ha): 100
Plant response rating, Lambsquarters (lambsquarters; 125 g ai/ha): 100
Plant response rating, Lambsquarters (lambsquarters; 250 g ai/ha): 100
Pigweed, Palmer plant response rating (palmer pigweed [5]; 16 g ai/ha): 95
Pigweed, Palmer plant response rating (palmer pigweed [5]; 31 g ai/ha): 100
Pigweed, Palmer plant response rating (palmer pigweed [5]; 62 g ai/ha): 100
Plant response rating, Pigweed, Palmer (palmer pigweed [5]; 125 g ai/ha): 100
Plant response rating, Pigweed, Palmer (palmer pigweed [5]; 250 g ai/ha): 100
Crabgrass, Brazil plant response rating (Brazilian crabgrass [6]; 16 g ai/ha): 90
Crabgrass, Brazil plant response rating (Brazilian crabgrass [6]; 31 g ai/ha): 98
Crabgrass, Brazil plant response rating (Brazilian crabgrass [6]; 62 g ai/ha): 100
Plant response rating, Crabgrass, Brazil (Brazilian crabgrass [6]; 125 g ai/ha): 100
Plant response rating, Crabgrass, Brazil (Brazilian crabgrass [6]; 250 g ai/ha): 100
Plant response rating, Sandbur (sandbur; 62 g ai/ha): 0
Plant response rating, Sandbur (sandbur; 125 g ai/ha): 0
Kochia plant response rating (kochia; 16 g ai/ha): 10
Kochia plant response rating (kochia; 31 g ai/ha): 75
Kochia plant response rating (kochia; 62 g ai/ha): 98
Plant response rating, Kochia (kochia; 125 g ai/ha): 100
Plant response rating, Kochia (kochia; 250 g ai/ha): 100
Plant response rating, Panicum, Fall (fall panicum; 62 g ai/ha): 10
Plant response rating, Panicum, Fall (fall panicum; 125 g ai/ha): 10
Plant response rating, Beggarticks (hairy beggarticks; 62 g ai/ha): 70
Plant response rating, Beggarticks (hairy beggarticks; 125 g ai/ha): 80
Plant response rating, Field Bindweed (field bindweed; 62 g ai/ha): 70
Plant response rating, Field Bindweed (field bindweed; 125 g ai/ha): 80
Plant response rating, Poinsettia, Wild (wild poinsettia; 62 g ai/ha): 55
Plant response rating, Poinsettia, Wild (wild poinsettia; 125 g ai/ha): 60
Crabgrass, Large plant response rating (large (Lg) crabgrass; 16 g ai/ha): 50
Crabgrass, Large plant response rating (large (Lg) crabgrass; 31 g ai/ha): 80
Crabgrass, Large plant response rating (large (Lg) crabgrass; 62 g ai/ha): 100
Plant response rating, Crabgrass, Large (large (Lg) crabgrass; 125 g ai/ha): 100
Plant response rating, Crabgrass, Large (large (Lg) crabgrass; 250 g ai/ha): 100
